Experimental data taken from patent publication US20250108038A1 (priority 2023, published 2025).
Entries after “also recorded” stand apart in the source; their conditions may differ. Like-named read-outs stand apart in the source and are kept apart here.

Legend:
[1] = tested on: rat red blood cells; experiment: Hemolysis study in rat blood; type: cell-based; conditions: 60 min, 37° C.; for % RBC lysis (hemolytic potential): test articles 25, 50, 100 μM, amphotericin B 1, 10, 30, 100 μM
Method: (§1) FIG. 6A. […] Compound I-19 in rat blood. Red blood cells were isolated from whole blood and resuspended in PBS. […] (final concentrations 25, 50, and 100 μM) and the mixtures were incubated at 37° C. for 60 min. After the incubation, the samples were centrifuged and the absorbance of 100 μL of supernatant was read at 410 nm. % RBC lysis is expressed relative to 100% lysis control. Values represent mean+SEM of n=3 separate experiments.
as §1, with “6B.” for “6A.”, “μl” for “μL”
FIG. 6C. Hemolytic Potential of Amphotericin B in rat blood (positive assay control). Red blood cells were isolated from whole blood and resuspended in PBS. 190 μL of diluted RBC suspension and 10 μL of amphotericin B solutions were mixed at 0 min. (final concentrations 1, 10, 30, and 100 μM) and the mixtures were incubated at 37° C. for 60 min. After the incubation, the samples were centrifuged and the absorbance of 100 μL of supernatant was read at 410 nm. % RBC lysis is expressed relative to 100% lysis control. Values represent mean+SEM of n=3 separate experiments.
To a clear 96-well V-bottom polystyrene plate, the test articles (10 μL) and the diluted RBCs (190 μL) from human or rat blood were mixed for final concentrations of 25, 50, and 100 μM. The reaction mixture was incubated at 37° C. for 60 min. Following the exposure period, the plates were centrifuged. After centrifugation, 70 μL of supernatant (without disturbing the pellet) was transferred to a clean and clear polystyrene flat bottomed 96-well plate and the absorbance of the sample at a single wavelength was measured using a BioTech Synergy H1 Plate Reader at a wavelength of 410 nm. The positive control for this assay was amphotericin B test at concentrations of 1, 10, 30, and 100 μM.

[2] = tested on: rat gut microbiota; experiment: Stability in rat gut microbiota; conditions: rat fecal matter, 37° C., 0-120 min
Method: FIG. 7A. […] Gut microbiota from rat and human sources were extracted and purified in PBS at pH 6.0 or 7.4. A stock solution of 10 mM was prepared and a 10 μL aliquot was added to extracted microorganisms at 0 min. […] Values represent mean+SEM of n=3 separate experiments.
FIG. 7B. […] Gut microbiota from rat and human sources were extracted and purified in PBS at pH 6.0 or 7.4. A stock solution of 10 mM was prepared and a 10 μL aliquot was added to extracted microorganisms at 0 min. […] Values represent mean+SEM of n=3 separate experiments.
Rat fecal material was obtained and weighed. One capsule of the raw probiotics was crushed and weighed prior to use. The weighed samples were then solubilized in PBS at pH 6.0 and 7.4 to extract microorganisms. The samples were centrifuged at 18,000×g for 10 min. to remove particulates and the supernatant was used to evaluate test article stability. An aliquot (50 μL) of the test article stock solutions were added to the fecal extract (final concentration 0.5 mM) and allowed to incubate at 37° C. […] The collected sample was quenched in acetonitrile/0.1% formic acid mixture.

[3] = in vitro; conditions: for % Remaining / Aa/Ai Mean (N = 2) / T1/2: 2.0 μM; for T1/2: 60 min incubation
[4] = biological target: MATE2-K (Homo sapiens, UniProt Q86VL8); experiment: Uptake transporter inhibition assay, MATE2-K (metformin)
[5] = 0.14 μM nominal, 0.08 μM NSB corrected, follow-up assay
[6] = 1.24 μM nominal, 0.79 μM NSB corrected, follow-up assay
[7] = 10.00 μM nominal, 6.50 μM NSB corrected
[8] = 11.11 μM nominal, 6.11 μM NSB corrected, follow-up assay
[9] = 33.33 μM nominal, 20.33 μM NSB corrected, follow-up assay
[10] = 100.00 μM nominal, 67.00 μM NSB corrected
[11] = 100.00 μM nominal, […] NSB corrected, follow-up assay
[12] = […] nominal, 2.37 μM NSB corrected, follow-up assay
[13] = 0.04 μM nominal, IC50 determination
[14] = 0.12 μM nominal, IC50 determination
[15] = 1.11 μM nominal, IC50 determination
[16] = 10.00 μM nominal, IC50 determination
[17] = 30.00 μM nominal, IC50 determination

Sequence of MATE2-K (Q86VL8 1-566 isoform Q86VL8-3): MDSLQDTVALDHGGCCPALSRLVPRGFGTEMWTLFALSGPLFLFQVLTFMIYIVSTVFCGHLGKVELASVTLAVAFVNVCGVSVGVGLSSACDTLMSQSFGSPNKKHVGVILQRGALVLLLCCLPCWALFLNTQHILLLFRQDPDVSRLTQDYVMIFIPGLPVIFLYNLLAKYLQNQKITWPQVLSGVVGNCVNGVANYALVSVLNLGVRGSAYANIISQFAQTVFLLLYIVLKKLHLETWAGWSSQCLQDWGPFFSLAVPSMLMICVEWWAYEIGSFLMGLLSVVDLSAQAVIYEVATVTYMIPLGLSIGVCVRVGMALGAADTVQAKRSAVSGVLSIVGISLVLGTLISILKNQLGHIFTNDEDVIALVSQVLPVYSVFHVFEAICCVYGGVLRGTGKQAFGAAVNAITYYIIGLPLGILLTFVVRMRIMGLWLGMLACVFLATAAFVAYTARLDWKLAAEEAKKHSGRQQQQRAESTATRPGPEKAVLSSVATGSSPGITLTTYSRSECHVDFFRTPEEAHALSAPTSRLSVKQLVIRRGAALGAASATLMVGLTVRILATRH

Structure (SMILES): COCCOC1(c2ccc(Cl)cc2)c2ccccc2C2=NCCN21 (stereo not shown) [Compound I-4]
- EC50 (% RBC lysis) [1]: outside the concentration range tested
- % RBC lysis (hemolytic potential) [1]: no detectable hemolysis
- % parent compound remaining ([2]; pH 6, 0.5 mM): ≥ 100%
- % parent compound remaining ([2]; pH 7.4, 0.5 mM): ≥ 100%
- Compound A formed (Aa/Ai) ([3]; 0 min): 0.57
- % Remaining ([3]; 0 min): 100%
- Aa/Ai Mean (N = 2) ([3]; 0 min): 3.25
- % Remaining ([3]; 5 min): 95.0%
- Aa/Ai Mean (N = 2) ([3]; 5 min): 3.08
- % Remaining ([3]; 15 min): 99.6%
- Aa/Ai Mean (N = 2) ([3]; 15 min): 3.23
- % Remaining ([3]; 30 min): 90.8%
- Aa/Ai Mean (N = 2) ([3]; 30 min): 2.95
- % Remaining ([3]; 60 min): 83.6%
- Aa/Ai Mean (N = 2) ([3]; 60 min): 2.72
- T1/2 [3]: >3.12 h
- Compound A formed (Aa/Ai) ([3]; 5 min): 0.66
- Compound A formed (Aa/Ai) ([3]; 15 min): 0.58
- Compound A formed (Aa/Ai) ([3]; 30 min): 0.52
- Compound A formed (Aa/Ai) ([3]; 60 min): 0.42

Structure (SMILES): Clc1ccc(C2(OCC3OCCO3)c3ccccc3C3=NCCN32)cc1 (stereo not shown) [Compound I-19]
- Relative inhibition [4, 5]: 5%
- Relative transporter specific accumulation [4, 5]: 95.22 ± 8.50 % of control
- Transporter specific accumulation [4, 5]: 99.67 ± 6.15 cpm
- Relative inhibition [4, 6]: 0%
- Relative transporter specific accumulation [4, 6]: 100.32 ± 8.62 % of control
- Transporter specific accumulation [4, 6]: 105.00 ± 5.96 cpm
- Relative inhibition [4, 7]: 14%
- Relative transporter specific accumulation [4, 7]: 85.87 ± 5.57 % of control
- Transporter specific accumulation [4, 7]: 154.00 ± 7.39 cpm
- Relative inhibition [4, 8]: 15%
- Relative transporter specific accumulation [4, 8]: 84.71 ± 5.61 % of control
- Transporter specific accumulation [4, 8]: 88.67 ± 1.33 cpm
- Relative inhibition [4, 9]: 44%
- Relative transporter specific accumulation [4, 9]: 56.05 ± 3.67 % of control
- Transporter specific accumulation [4, 9]: 58.67 ± 0.67 cpm
- Relative inhibition [4, 10]: 93%
- Relative transporter specific accumulation [4, 10]: 7.06 ± 5.01 % of control
- Transporter specific accumulation [4, 10]: 12.67 ± 8.97 cpm
- Relative inhibition [4, 11]: 86%
- Relative transporter specific accumulation [4, 11]: 14.01 ± 1.15 % of control
- Transporter specific accumulation [4, 11]: 14.67 ± 0.75 cpm
- maximum inhibition of MATE2-K-mediated metformin accumulation ([4]; 2-concentration assay, Compound I-19 100 μM, Compound A 30 μM, Compound B 80 μM): 93%
- Maximum % inhibition ([4]; MATE2-K, HEK293 cells, metformin (10 μM), NIO: no inhibition observed): 86%
- Relative inhibition [4, 12]: 1%
- Relative transporter specific accumulation [4, 12]: 99.36 ± 6.66 % of control
- Transporter specific accumulation [4, 12]: 104.00 ± 1.89 cpm
- maximum inhibition of MATE2-K-mediated metformin accumulation ([4]; follow-up assay): 86%
- IC50 ([4]; follow-up assay, NSB-corrected concentrations for Compound I-19): 36.6 µM
- EC50 (% RBC lysis) [1]: outside the concentration range tested
- % RBC lysis (hemolytic potential) [1]: no detectable hemolysis
- % parent compound remaining ([2]; pH 6, 0.5 mM): at or above 100% for all time points except 120 min
- % parent compound remaining ([2]; pH 7.4, 0.5 mM): time-dependent decrease in the amount of parent compound present; also recorded: unstable
- Compound A formed (Aa/Ai) ([3]; 0 min): 0.60
- % Remaining ([3]; 0 min): 100%
- Aa/Ai Mean (N = 2) ([3]; 0 min): 1.62
- % Remaining ([3]; 5 min): 99.1%
- Aa/Ai Mean (N = 2) ([3]; 5 min): 1.61
- % Remaining ([3]; 15 min): 98.2%
- Aa/Ai Mean (N = 2) ([3]; 15 min): 1.59
- % Remaining ([3]; 30 min): 92.8%
- Aa/Ai Mean (N = 2) ([3]; 30 min): 1.50
- % Remaining ([3]; 60 min): 79.6%
- Aa/Ai Mean (N = 2) ([3]; 60 min): 1.29
- T1/2 [3]: 2.97 h
- Compound A formed (Aa/Ai) ([3]; 5 min): 0.59
- Compound A formed (Aa/Ai) ([3]; 15 min): 0.57
- Compound A formed (Aa/Ai) ([3]; 30 min): 0.52
- Compound A formed (Aa/Ai) ([3]; 60 min): 0.47

Structure (SMILES): OC1(c2ccc(Cl)cc2)c2ccccc2C2=NCCN21 (stereo not shown) [Compound A, 5-(4-chlorophenyl)-2,3-dihydroimidazo[1,2-b]isoindol-5-ol, reference compound]
- IC50 [4]: 12.8 µM
- Relative transporter specific accumulation [4, 13]: 90.25 ± 3.17 % of control
- Transporter specific accumulation [4, 13]: 108.00 ± 2.98 cpm
- Relative transporter specific accumulation [4, 14]: 96.94 ± 8.16 % of control
- Transporter specific accumulation [4, 14]: 116.00 ± 9.43 cpm
- Relative transporter specific accumulation [4, 15]: 89.69 ± 6.53 % of control
- Transporter specific accumulation [4, 15]: 107.33 ± 7.45 cpm
- Relative transporter specific accumulation ([4]; 3.00 μM nominal): 97.37 ± 11.23 % of control
- Transporter specific accumulation ([4]; 3.00 μM nominal): 86.33 ± 7.06 cpm
- Relative transporter specific accumulation [4, 16]: 51.81 ± 3.80 % of control
- Transporter specific accumulation [4, 16]: 62.00 ± 4.35 cpm
- Relative transporter specific accumulation ([4]; 30.00 μM nominal): 27.07 ± 4.56 % of control
- Transporter specific accumulation ([4]; 30.00 μM nominal): 24.00 ± 3.54 cpm
- Relative transporter specific accumulation [4, 17]: 20.61 ± 1.94 % of control
- Transporter specific accumulation [4, 17]: 24.67 ± 2.26 cpm
- inhibition at 10 µM ([4]; human, Maximum % inhibition, MATE2-K, HEK293 cells, metformin (10 μM), NIO: no inhibition observed): 79%
- inhibition at 0.04 μM ([4]; human, Relative inhibition, 0.04 μM nominal, IC50 determination): 10%
- inhibition at 0.12 μM ([4]; human, Relative inhibition, 0.12 μM nominal, IC50 determination): 3%
- inhibition at 1.11 μM ([4]; human, Relative inhibition, 1.11 μM nominal, IC50 determination): 10%
- inhibition at 3 μM ([4]; human, Relative inhibition, 3.00 μM nominal): 3%
- inhibition at 10 µM ([4]; human, Relative inhibition, 10.00 μM nominal, IC50 determination): 48%
- inhibition at 30 μM ([4]; human, Relative inhibition, 30.00 μM nominal): 73%
- inhibition at 30 μM ([4]; human, Relative inhibition, 30.00 μM nominal, IC50 determination): 79%
